From patent publication US6962928B2, “Tetrahydroquinoline derivatives for the inhibition of osteoporosis, estrogen dependent breast cancer, endometriosis and uterine fibrosis” (Eli Lilly and Company, priority 2001, dated 2005)

Tested on: Ishikawa human endometrial tumor cells
Assay: Ishikawa alkaline phosphatase assay
Assay type: cell-based
Settings: for EC50: Homo sapiens, Ishikawa; for EC50 / Agonist % Eff: agonist mode; for Agonist % Eff: % efficacy versus the response to Tamoxifen; for Antagonist % Eff: antagonist mode, % efficacy versus E2 (1 nM) alone
From the text: Ishikawa Alkaline Phosphatase Assay
Ishikawa human endometrial tumor cells are maintained in MEM (minimum essential medium, with Earle's salts and L-Glutamine, Gibco BRL, Gaithersburg, Md.), supplemented with 10% fetal bovine serum (FBS) (V/V), (Gibco BRL). One day prior to assay, growth media is changed to assay medium, DMEM/F-12 (3:1) (Dulbecco's Modified Eagle Medium: Nutrient Mixture F-12, 3:1 Mixture, phenol red-free, Gibco BRL) supplemented with 5% dextran coated charcoal stripped fetal bovine serum (DCC-FBS) (Hyclone, Logen, Utah), L-Glutamine (2 mM), MEM sodium pyruvate (1 mM), HEPES (N-[2-hydroxyethyl]piperazine-N′-[2-ethanesulfonic acid] 2 mM) all from Gibco BRL). After an overnight incubation, ishikawa cells are rinsed with Dulbecco's Phosphate Buffered Saline (1×) (D-PBS) without Ca^+2 and Mg^+2 (Gibco BRL), and trypsinized by a 3 minute incubation with 0.25% Trypsin/EDTA, phenol red-free (Gibco BRL). Cells are resuspended in assay medium and adjusted to 250,000 cells/ml. Approximately 25,000 cells in a 100 ul media are added to flat-bottom 96 wells microculture plates (Costar 3596) and incubated at 37° C. in a 5% CO2 humidified incubator for 24 hours. The next day, serial dilutions of compounds are prepared in assay medium (at 6 times the final concentration in the assay). The assay is run in dual mode, agonist and antagonist modes. For the agonist mode, plates receive 25 μl/well of assay medium followed by 25 μl/well of diluted compounds (at 6× the final concentrations). For the antagonist mode, plates receive 25 μl/well of 6 nM E2 (β-Estradiol, Sigma, St. Louis, Mo.) followed by 25 μl/well of diluted compounds (at 6× the final concentrations). After an additional 48-hour incubation at 37° C. in a 5% CO2 humidified incubator, media is aspirated from wells and 100 μl fresh assay medium is added to each microculture. Serial dilutions of compounds are prepared and added to the cells as described above. After an additional 72 hour incubation at 37° C. in a 5% CO2 humidified incubator, the assay is quenched by removing media and rinsing plates twice in Dulbecco's Phosphate Buffered Saline (1×) (D-PBS) (Gibco BRL). The plates are dried for 5 min and frozen at −70° C. for at least 1 hour. The plates are then removed from the freezer and allowed to thaw at room temperature. To each well, 100 μl of 1-Step™ PNPP (Pierce Chemical Company, Rockford, Ill.) is added. After a 20-minute incubation, plates are read on a spectophotometer at 405 nm. The data is fitted to a linear interpolation to derive EC50 (for agonist mode) or IC50 (for antagonist mode) values. For the agonist mode, a % efficacy for each compound is calculated versus the response to Tamoxifen. For the antagonist mode, a % efficacy for each compound is calculated versus E2 (1 nM) alone.

Row | EC50 [nM] | Compound | Agonist % Eff [%] | Antagonist % Eff [%]
1 | 262 | Oc1ccc(C2CCc3cc(O)ccc3N2c2ccc(OCCN3CCCCC3)cc2)cc1 (stereo not drawn) [Example 3] | 117 | −0.2
2 | 161 | Oc1ccc(C2CCc3cc(O)ccc3N2c2ccc(OCCN3CCCC3)cc2)cc1 (stereo not drawn) [Example 4] | 36 | 40
